Reference: US12435044B2, “Pyridazinone herbicides and pyridazinone intermediates used to prepare a herbicide” (FMC Corporation, priority 2018, dated 2025)

Key:
Format in all cases: in vivo
[1] = tested on: blackgrass (Alopecurus myosuroides); assay: Test A postemergence greenhouse test
Text: (§1) Seeds of plant species selected from barnyardgrass (Echinochloa crus-galli), kochia (Kochia scoparia), ragweed (common ragweed, Ambrosia elatior), ryegrass, Italian (Lolium multiflorum), foxtail, giant (Setaria faberii), foxtail, green (Setaria viridis) and pigweed (Amaranthus retroflexus) were planted into a blend of loam soil and sand and treated preemergence with a directed soil spray using test chemicals formulated in a non-phytotoxic solvent mixture which included a surfactant.
(§2) At the same time, plants selected from these weed species and also wheat (Triticum aestivum), corn (Zea mays), blackgrass (Alopecurus myosuroides) and galium (catchweed bedstraw, Galium aparine) were planted in pots containing the same blend of loam soil and sand and treated with postemergence applications of test chemicals formulated in the same manner. Plants ranged in height from 2 to 10 cm and were in the one- to two-leaf stage for the postemergence treatment. Treated plants and untreated controls were maintained in a greenhouse for approximately 10 d, after which time all treated plants were compared to untreated controls and visually evaluated for injury. Plant response ratings, summarized in Table A, are based on a 0 to 100 scale where 0 is no effect and 100 is complete control. A dash (-) response means no test result.

corn (Zea mays) = assay: Test A postemergence greenhouse test
Text: as §1, §2

[2] = tested on: galium (catchweed bedstraw, Galium aparine); assay: Test A postemergence greenhouse test
Text: as §1, §2

[3] = tested on: wheat (Triticum aestivum); assay: Test A postemergence greenhouse test
Text: as §1, §2

[4] = tested on: sedge, umbrella (small-flower umbrella sedge, Cyperus difformis); assay: Test B flooded paddy test; settings: Flood, 250 g ai/ha
Description: Plant species in the flooded paddy test selected from rice (Oryza sativa), sedge, umbrella (small-flower umbrella sedge, Cyperus difformis), duck salad (Heteranthera limosa) and barnyardgrass (Echinochloa crus-galli) were grown to the 2-leaf stage for testing. At time of treatment, test pots were flooded to 3 cm above the soil surface, treated by application of test compounds directly to the paddy water, and then maintained at that water depth for the duration of the test. Treated plants and controls were maintained in a greenhouse for 13 to 15 d, after which time all species were compared to controls and visually evaluated. Plant response ratings, summarized in Table B, are based on a scale of 0 to 100 where 0 is no effect and 100 is complete control. A dash (-) response means no test result.

[5] = tested on: barley, spring (Hordeum vulgare); assay: Test D pre-/postemergence controlled growth environment test
Text: (§3) Seeds of plant species selected from blackgrass (Alopecurus myosuroides), galium (catchweed bedstraw, Galium aparine), kochia (Kochia scoparia), oilseed rape (Brassica napus), barley, spring (Hordeum vulgare), wheat, spring (Triticum aestivum), oat, wild (Avena fatua), barley, winter (Hordeum vulgare) and wheat, winter (Triticum aestivum) were planted into a silt loam soil and treated preemergence with test chemicals formulated in a non-phytotoxic solvent mixture which included a surfactant.
(§4) At the same time, plants selected from these crop and weed species and also bluegrass (annual bluegrass, Poa annua), canarygrass (littleseed canarygrass, Phalaris minor), chickweed (common chickweed, Stellaria media), bromegrass, downy (downy bromegrass, Bromus tectorum), field poppy (Papaver rhoeas), field violet (Viola arvensis), foxtail, green (Setaria viridis), deadnettle (henbit deadnettle, Lamium amplexicaule), ryegrass, Italian (Lolium multiflorum), lambsquarters (Chenopodium album), pigweed (Amaranthus retroflexus), chamomile (scentless chamomile, Matricaria inodora), Russian thistle (Salsola kali), speedwell (bird's-eye speedwell, Veronica persica), buckwheat, wild (Polygonum convolvulus), mustard, wild (Sinapis arvensis), radish, wild (Raphanus raphanistrum), windgrass (Apera spica-venti), geranium, cutleaf (Geranium dissectum) and Canada thistle (Cirsium arvense) were planted in pots containing Redi-Earth® planting medium (Scotts Company, 14111 Scottslawn Road, Marysville, Ohio 43041) comprising spaghnum peat moss, vermiculite, wetting agent and starter nutrients and treated with postemergence applications of the test chemicals formulated in the same manner. Plants ranged in height from 2 to 18 cm (1- to 4-leaf stage). Treated plants and controls were maintained in a controlled growth environment for 14 to 21 d after which time all species were compared to controls and visually evaluated. Plant response ratings, summarized in Table D, are based on a scale of 0 to 100 where 0 is no effect and 100 is complete control. A dash (-) response means no test result.

[6] = tested on: barley, winter (Hordeum vulgare); assay: as above
Text: as §3, §4

[7] = tested on: blackgrass (Alopecurus myosuroides); assay: as above
Text: as §3, §4

[8] = tested on: galium (catchweed bedstraw, Galium aparine); assay: as above
Text: as §3, §4

kochia (Kochia scoparia) = assay: as above
Text: as §3, §4

oat, wild (Avena fatua) = assay: as above
Text: as §3, §4

[9] = tested on: oilseed rape (Brassica napus); assay: as above
Text: as §3, §4

[10] = tested on: wheat, spring (Triticum aestivum); assay: as above
Text: as §3, §4

[11] = tested on: wheat, winter (Triticum aestivum); assay: as above
Text: as §3, §4

`Cc1cc(Cl)c2ccccc2c1-c1c(O)c(Cl)nn(C)c1=O` [Cpd. No. 65] was tested, and the “Plant response rating (0 to 100 scale)” value ([1]; 31 g ai/ha) was 90, the “Plant response rating (0 to 100 scale)” value ([1]; 125 g ai/ha) was 100 and the “Plant response rating (0 to 100 scale)” value (corn (Zea mays); 31 g ai/ha) was 30. For the same compound, the “Plant response rating (0 to 100 scale)” value (corn (Zea mays); 125 g ai/ha) was 50, the “Plant response rating (0 to 100 scale)” value ([2]; 31 g ai/ha) was 100 and the “Plant response rating (0 to 100 scale)” value ([2]; 125 g ai/ha) was 100. The “Plant response rating (0 to 100 scale)” value ([3]; 31 g ai/ha) was 80, the “Plant response rating (0 to 100 scale)” value ([3]; 125 g ai/ha) was 90 and the “Plant response rating (0 to 100 scale)” value [4] was 90. The “Plant response rating, Barley, Spring” value ([5]; Postemergence, 16 g ai/ha) was 57, the “Plant response rating, Barley, Spring” value ([5]; Postemergence, 31 g ai/ha) was 78 and the “Plant response rating, Barley, Spring” value ([5]; Postemergence, 62 g ai/ha) was 88. For the same compound, the “Plant response rating, Barley, Spring” value ([5]; Postemergence, 125 g ai/ha) was 93, the “Plant response rating, Barley, Spring” value ([5]; Preemergence, 16 g ai/ha) was 0 and the “Plant response rating, Barley, Spring” value ([5]; Preemergence, 31 g ai/ha) was 3. The “Plant response rating, Barley, Spring” value ([5]; Preemergence, 62 g ai/ha) was 5, the “Plant response rating, Barley, Spring” value ([5]; Preemergence, 125 g ai/ha) was 73 and the “Plant response rating, Barley, Winter” value ([6]; Postemergence, 16 g ai/ha) was 60. For the same compound, the “Plant response rating, Barley, Winter” value ([6]; Postemergence, 31 g ai/ha) was 72, the “Plant response rating, Barley, Winter” value ([6]; Postemergence, 62 g ai/ha) was 83 and the “Plant response rating, Barley, Winter” value ([6]; Postemergence, 125 g ai/ha) was 90. The “Plant response rating, Barley, Winter” value ([6]; Preemergence, 16 g ai/ha) was 0, the “Plant response rating, Barley, Winter” value ([6]; Preemergence, 31 g ai/ha) was 3 and the “Plant response rating, Barley, Winter” value ([6]; Preemergence, 62 g ai/ha) was 7. The “Plant response rating, Barley, Winter” value ([6]; Preemergence, 125 g ai/ha) was 23, the “Plant response rating, Blackgrass” value ([7]; Postemergence, 16 g ai/ha) was 83 and the “Plant response rating, Blackgrass” value ([7]; Postemergence, 31 g ai/ha) was 90. For the same compound, the “Plant response rating, Blackgrass” value ([7]; Postemergence, 62 g ai/ha) was 93, the “Plant response rating, Blackgrass” value ([7]; Postemergence, 125 g ai/ha) was 95 and the “Plant response rating, Blackgrass” value ([7]; Preemergence, 16 g ai/ha) was 13. For the same compound, the “Plant response rating, Blackgrass” value ([7]; Preemergence, 31 g ai/ha) was 23, the “Plant response rating, Blackgrass” value ([7]; Preemergence, 62 g ai/ha) was 63 and the “Plant response rating, Blackgrass” value ([7]; Preemergence, 125 g ai/ha) was 90. For the same compound, the “Plant response rating, Galium” value ([8]; Postemergence, 16 g ai/ha) was 85, the “Plant response rating, Galium” value ([8]; Postemergence, 31 g ai/ha) was 97 and the “Plant response rating, Galium” value ([8]; Postemergence, 62 g ai/ha) was 97. The “Plant response rating, Galium” value ([8]; Postemergence, 125 g ai/ha) was 98, the “Plant response rating, Galium” value ([8]; Preemergence, 16 g ai/ha) was 13 and the “Plant response rating, Galium” value ([8]; Preemergence, 31 g ai/ha) was 82. For the same compound, the “Plant response rating, Galium” value ([8]; Preemergence, 62 g ai/ha) was 98, the “Plant response rating, Galium” value ([8]; Preemergence, 125 g ai/ha) was 100 and the “Plant response rating, Kochia” value (kochia (Kochia scoparia); Postemergence, 16 g ai/ha) was 35. For the same compound, the “Plant response rating, Kochia” value (kochia (Kochia scoparia); Postemergence, 31 g ai/ha) was 50, the “Plant response rating, Kochia” value (kochia (Kochia scoparia); Postemergence, 62 g ai/ha) was 75 and the “Plant response rating, Kochia” value (kochia (Kochia scoparia); Postemergence, 125 g ai/ha) was 90. For the same compound, the “Plant response rating, Kochia” value (kochia (Kochia scoparia); Preemergence, 16 g ai/ha) was 12, the “Plant response rating, Kochia” value (kochia (Kochia scoparia); Preemergence, 31 g ai/ha) was 22 and the “Plant response rating, Kochia” value (kochia (Kochia scoparia); Preemergence, 62 g ai/ha) was 72. For the same compound, the “Plant response rating, Kochia” value (kochia (Kochia scoparia); Preemergence, 125 g ai/ha) was 93, the “Plant response rating, Oat, Wild” value (oat, wild (Avena fatua); Postemergence, 16 g ai/ha) was 92 and the “Plant response rating, Oat, Wild” value (oat, wild (Avena fatua); Postemergence, 31 g ai/ha) was 92. The “Plant response rating, Oat, Wild” value (oat, wild (Avena fatua); Postemergence, 62 g ai/ha) was 96, the “Plant response rating, Oat, Wild” value (oat, wild (Avena fatua); Postemergence, 125 g ai/ha) was 99 and the “Plant response rating, Oat, Wild” value (oat, wild (Avena fatua); Preemergence, 16 g ai/ha) was 28. For the same compound, the “Plant response rating, Oat, Wild” value (oat, wild (Avena fatua); Preemergence, 31 g ai/ha) was 80, the “Plant response rating, Oat, Wild” value (oat, wild (Avena fatua); Preemergence, 62 g ai/ha) was 83 and the “Plant response rating, Oat, Wild” value (oat, wild (Avena fatua); Preemergence, 125 g ai/ha) was 97. For the same compound, the “Plant response rating, Oilseed Rape” value ([9]; Postemergence, 16 g ai/ha) was 85, the “Plant response rating, Oilseed Rape” value ([9]; Postemergence, 31 g ai/ha) was 87 and the “Plant response rating, Oilseed Rape” value ([9]; Postemergence, 62 g ai/ha) was 90. The “Plant response rating, Oilseed Rape” value ([9]; Postemergence, 125 g ai/ha) was 100, the “Plant response rating, Oilseed Rape” value ([9]; Preemergence, 16 g ai/ha) was 0 and the “Plant response rating, Oilseed Rape” value ([9]; Preemergence, 31 g ai/ha) was 18. The “Plant response rating, Oilseed Rape” value ([9]; Preemergence, 62 g ai/ha) was 85, the “Plant response rating, Oilseed Rape” value ([9]; Preemergence, 125 g ai/ha) was 100 and the “Plant response rating, Wheat, Spring” value ([10]; Postemergence, 16 g ai/ha) was 90. The “Plant response rating, Wheat, Spring” value ([10]; Postemergence, 31 g ai/ha) was 93, the “Plant response rating, Wheat, Spring” value ([10]; Postemergence, 62 g ai/ha) was 93 and the “Plant response rating, Wheat, Spring” value ([10]; Postemergence, 125 g ai/ha) was 93. For the same compound, the “Plant response rating, Wheat, Spring” value ([10]; Preemergence, 16 g ai/ha) was 63, the “Plant response rating, Wheat, Spring” value ([10]; Preemergence, 31 g ai/ha) was 78 and the “Plant response rating, Wheat, Spring” value ([10]; Preemergence, 62 g ai/ha) was 90. For the same compound, the “Plant response rating, Wheat, Spring” value ([10]; Preemergence, 125 g ai/ha) was 100, the “Plant response rating, Wheat, Winter” value ([11]; Postemergence, 16 g ai/ha) was 85 and the “Plant response rating, Wheat, Winter” value ([11]; Postemergence, 31 g ai/ha) was 90. For the same compound, the “Plant response rating, Wheat, Winter” value ([11]; Postemergence, 62 g ai/ha) was 90, the “Plant response rating, Wheat, Winter” value ([11]; Postemergence, 125 g ai/ha) was 92 and the “Plant response rating, Wheat, Winter” value ([11]; Preemergence, 16 g ai/ha) was 23. For the same compound, the “Plant response rating, Wheat, Winter” value ([11]; Preemergence, 31 g ai/ha) was 67, the “Plant response rating, Wheat, Winter” value ([11]; Preemergence, 62 g ai/ha) was 80 and the “Plant response rating, Wheat, Winter” value ([11]; Preemergence, 125 g ai/ha) was 93.
